Experimental data from ChEMBL document CHEMBL4507302, “Data for DCP probe TP-020” (2021).

Tests used:
[1] = molecular target: Calcium/calmodulin-dependent protein kinase type 1D (Homo sapiens) (UniProt Q8IU85); details: Compound concentration 1000.0 nM
[2] = molecular target: Tyrosine-protein kinase Yes (Homo sapiens) (UniProt P07947); details: Compound concentration 1000.0 nM
[3] = molecular target: 3-phosphoinositide-dependent protein kinase 1 (Homo sapiens) (UniProt O15530); details: Compound concentration 1000.0 nM
[4] = molecular target: Phosphatidylinositol 3-kinase C2 domain-containing subunit gamma (Homo sapiens) (UniProt O75747); details: Compound concentration 1000.0 nM
[5] = molecular target: Dual specificity tyrosine-phosphorylation-regulated kinase 1B (Homo sapiens) (UniProt Q9Y463); details: Compound concentration 1000.0 nM
[6] = molecular target: Serine/threonine-protein kinase MARK2 (Homo sapiens) (UniProt Q7KZI7); details: Compound concentration 1000.0 nM
[7] = molecular target: Dual specificity tyrosine-phosphorylation-regulated kinase 1A (Homo sapiens) (UniProt Q13627); details: Compound concentration 1000.0 nM
[8] = molecular target: Serine/threonine-protein kinase PLK4 (Homo sapiens) (UniProt O00444); details: Compound concentration 1000.0 nM
[9] = molecular target: SRSF protein kinase 1 (Homo sapiens) (UniProt Q96SB4); details: Compound concentration 1000.0 nM
[10] = molecular target: Cyclin-dependent kinase 8 (Homo sapiens) (UniProt P49336); details: Compound concentration 1000.0 nM
[11] = molecular target: Ephrin type-A receptor 1 (Homo sapiens) (UniProt P21709); details: Compound concentration 1000.0 nM
[12] = molecular target: Casein kinase I isoform epsilon (Homo sapiens) (UniProt P49674); details: Compound concentration 1000.0 nM
[13] = test system: Epidermal growth factor receptor (Homo sapiens), P00533 [UNDEFINED MUTATION]; details: Compound concentration 1000.0 nM
[14] = molecular target: BMP-2-inducible protein kinase (Homo sapiens) (UniProt Q9NSY1); details: Compound concentration 1000.0 nM
[15] = molecular target: Serine/threonine-protein kinase LATS1 (Homo sapiens) (UniProt O95835); details: Compound concentration 1000.0 nM
[16] = molecular target: Beta-adrenergic receptor kinase 1 (Homo sapiens) (UniProt P25098); details: Compound concentration 1000.0 nM
[17] = molecular target: Sodium-dependent noradrenaline transporter (Homo sapiens) (UniProt P23975); details: Compound concentration 10.0 uM
[18] = molecular target: 5-hydroxytryptamine receptor 2A (Homo sapiens) (UniProt P28223); details: Compound concentration 10.0 uM
[19] = molecular target: Mitogen-activated protein kinase kinase kinase 11 (Homo sapiens) (UniProt Q16584); details: Compound concentration 1000.0 nM
[20] = molecular target: Delta-type opioid receptor (Homo sapiens) (UniProt P41143); details: Compound concentration 10.0 uM
[21] = molecular target: Casein kinase I isoform gamma-2 (Homo sapiens) (UniProt P78368); details: Compound concentration 1000.0 nM
[22] = molecular target: Ribosomal protein S6 kinase alpha-3 (Homo sapiens) (UniProt P51812); details: Compound concentration 1000.0 nM
[23] = molecular target: NUAK family SNF1-like kinase 1 (Homo sapiens) (UniProt O60285); details: Compound concentration 1000.0 nM
[24] = molecular target: Cyclin-dependent kinase 13 (Homo sapiens) (UniProt Q14004); details: Compound concentration 1000.0 nM
[25] = molecular target: Cyclin-dependent kinase 19 (Homo sapiens) (UniProt Q9BWU1); details: Compound concentration 1000.0 nM
[26] = molecular target: Casein kinase I isoform alpha-like (Homo sapiens) (UniProt Q8N752); details: Compound concentration 1000.0 nM
[27] = test system: ALK tyrosine kinase receptor (Homo sapiens), Q9UM73 [C1156Y]; details: Compound concentration 1000.0 nM
[28] = molecular target: NT-3 growth factor receptor (Homo sapiens) (UniProt Q16288); details: Compound concentration 1000.0 nM
[29] = molecular target: Phosphatidylinositol 4-phosphate 3-kinase C2 domain-containing subunit beta (Homo sapiens) (UniProt O00750); details: Compound concentration 1000.0 nM
[30] = molecular target: Beta-2 adrenergic receptor (Homo sapiens) (UniProt P07550); details: Compound concentration 10.0 uM
[31] = molecular target: Proto-oncogene tyrosine-protein kinase ROS (Homo sapiens) (UniProt P08922); details: Compound concentration 1000.0 nM
[32] = molecular target: Tyrosine-protein kinase JAK1 (Homo sapiens) (UniProt P23458); details: Compound concentration 1000.0 nM
[33] = molecular target: Phosphatidylinositol 3-kinase catalytic subunit type 3 (Homo sapiens) (UniProt Q8NEB9); details: Compound concentration 1000.0 nM
[34] = molecular target: Myosin light chain kinase 2, skeletal/cardiac muscle (Homo sapiens) (UniProt Q9H1R3); details: Compound concentration 1000.0 nM
[35] = molecular target: Serine/threonine-protein kinase TAO1 (Homo sapiens) (UniProt Q7L7X3); details: Compound concentration 1000.0 nM
[36] = test system: Tyrosine-protein kinase ABL1 (Homo sapiens), P00519 [H396P]; details: Compound concentration 1000.0 nM
[37] = test system: Mast/stem cell growth factor receptor Kit (Homo sapiens), P10721 [V559D,V654A]; details: Compound concentration 1000.0 nM
[38] = molecular target: Ribosomal protein S6 kinase alpha-3 (Homo sapiens) (UniProt P51812); details: Compound concentration 1000.0 nM; remark: listed apart in the source
[39] = test system: Tyrosine-protein kinase ABL1 (Homo sapiens), P00519 [M351T]; details: Compound concentration 1000.0 nM
[40] = molecular target: Serine/threonine-protein kinase ICK (Homo sapiens) (UniProt Q9UPZ9); details: Compound concentration 1000.0 nM
[41] = molecular target: Serine/threonine-protein kinase PRP4 homolog (Homo sapiens) (UniProt Q13523); details: Compound concentration 1000.0 nM
[42] = test system: Hepatocyte growth factor receptor (Homo sapiens), P08581 [Y1235D]; details: Compound concentration 1000.0 nM
[43] = molecular target: Cyclin-dependent kinase 18 (Homo sapiens) (UniProt Q07002); details: Compound concentration 1000.0 nM
[44] = molecular target: Myosin light chain kinase, smooth muscle (Homo sapiens) (UniProt Q15746); details: Compound concentration 1000.0 nM
[45] = test system: Tyrosine-protein kinase ABL1 (Homo sapiens), P00519 [T315I]; details: Compound concentration 1000.0 nM

Sequence of Ribosomal protein S6 kinase alpha-3 (Homo sapiens) (P51812 whole entry): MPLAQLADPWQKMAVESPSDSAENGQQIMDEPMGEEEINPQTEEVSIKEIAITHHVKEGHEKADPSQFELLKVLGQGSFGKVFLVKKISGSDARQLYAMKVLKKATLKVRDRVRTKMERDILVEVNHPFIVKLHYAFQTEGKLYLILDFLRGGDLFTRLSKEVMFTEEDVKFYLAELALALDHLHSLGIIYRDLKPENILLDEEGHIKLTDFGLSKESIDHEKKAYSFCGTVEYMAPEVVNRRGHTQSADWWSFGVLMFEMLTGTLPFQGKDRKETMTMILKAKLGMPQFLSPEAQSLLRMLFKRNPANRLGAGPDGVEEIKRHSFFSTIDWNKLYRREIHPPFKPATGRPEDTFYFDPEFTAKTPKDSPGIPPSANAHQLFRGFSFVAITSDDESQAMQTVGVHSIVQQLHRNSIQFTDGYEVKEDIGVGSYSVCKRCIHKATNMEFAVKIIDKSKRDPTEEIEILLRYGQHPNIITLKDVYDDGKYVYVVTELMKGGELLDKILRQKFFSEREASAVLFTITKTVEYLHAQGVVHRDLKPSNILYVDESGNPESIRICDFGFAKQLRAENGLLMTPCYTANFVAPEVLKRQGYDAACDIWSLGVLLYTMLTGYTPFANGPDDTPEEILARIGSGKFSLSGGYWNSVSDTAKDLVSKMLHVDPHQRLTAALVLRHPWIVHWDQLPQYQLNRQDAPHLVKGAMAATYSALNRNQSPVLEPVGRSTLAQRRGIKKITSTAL
Sequence of Mast/stem cell growth factor receptor Kit (Homo sapiens), P10721 [V559D,V654A] (P10721 whole entry V559D/V654A): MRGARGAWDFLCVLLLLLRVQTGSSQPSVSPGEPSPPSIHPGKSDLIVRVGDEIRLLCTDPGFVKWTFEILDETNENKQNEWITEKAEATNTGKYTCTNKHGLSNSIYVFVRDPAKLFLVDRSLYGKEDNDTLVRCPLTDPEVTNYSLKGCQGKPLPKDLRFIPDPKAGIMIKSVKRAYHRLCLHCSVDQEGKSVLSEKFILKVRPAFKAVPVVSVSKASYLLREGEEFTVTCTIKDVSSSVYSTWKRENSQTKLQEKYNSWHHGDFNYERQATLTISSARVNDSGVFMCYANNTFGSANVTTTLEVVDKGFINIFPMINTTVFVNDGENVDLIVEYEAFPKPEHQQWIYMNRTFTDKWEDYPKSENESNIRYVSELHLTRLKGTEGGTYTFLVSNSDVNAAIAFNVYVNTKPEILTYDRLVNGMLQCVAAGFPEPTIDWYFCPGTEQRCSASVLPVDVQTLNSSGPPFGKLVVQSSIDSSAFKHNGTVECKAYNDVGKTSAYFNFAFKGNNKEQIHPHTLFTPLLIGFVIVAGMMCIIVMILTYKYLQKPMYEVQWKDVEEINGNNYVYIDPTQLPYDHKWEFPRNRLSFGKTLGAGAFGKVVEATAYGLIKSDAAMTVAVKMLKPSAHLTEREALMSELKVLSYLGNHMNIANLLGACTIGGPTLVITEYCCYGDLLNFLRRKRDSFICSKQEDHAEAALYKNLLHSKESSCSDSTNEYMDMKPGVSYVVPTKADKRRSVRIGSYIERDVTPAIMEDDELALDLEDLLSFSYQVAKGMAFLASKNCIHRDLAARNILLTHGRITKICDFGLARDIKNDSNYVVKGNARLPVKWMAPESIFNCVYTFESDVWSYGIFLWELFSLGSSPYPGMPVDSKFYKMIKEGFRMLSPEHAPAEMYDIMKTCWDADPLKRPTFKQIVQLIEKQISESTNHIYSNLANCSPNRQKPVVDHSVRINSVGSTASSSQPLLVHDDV
Sequence of BMP-2-inducible protein kinase (Homo sapiens) (Q9NSY1 whole entry, looked up): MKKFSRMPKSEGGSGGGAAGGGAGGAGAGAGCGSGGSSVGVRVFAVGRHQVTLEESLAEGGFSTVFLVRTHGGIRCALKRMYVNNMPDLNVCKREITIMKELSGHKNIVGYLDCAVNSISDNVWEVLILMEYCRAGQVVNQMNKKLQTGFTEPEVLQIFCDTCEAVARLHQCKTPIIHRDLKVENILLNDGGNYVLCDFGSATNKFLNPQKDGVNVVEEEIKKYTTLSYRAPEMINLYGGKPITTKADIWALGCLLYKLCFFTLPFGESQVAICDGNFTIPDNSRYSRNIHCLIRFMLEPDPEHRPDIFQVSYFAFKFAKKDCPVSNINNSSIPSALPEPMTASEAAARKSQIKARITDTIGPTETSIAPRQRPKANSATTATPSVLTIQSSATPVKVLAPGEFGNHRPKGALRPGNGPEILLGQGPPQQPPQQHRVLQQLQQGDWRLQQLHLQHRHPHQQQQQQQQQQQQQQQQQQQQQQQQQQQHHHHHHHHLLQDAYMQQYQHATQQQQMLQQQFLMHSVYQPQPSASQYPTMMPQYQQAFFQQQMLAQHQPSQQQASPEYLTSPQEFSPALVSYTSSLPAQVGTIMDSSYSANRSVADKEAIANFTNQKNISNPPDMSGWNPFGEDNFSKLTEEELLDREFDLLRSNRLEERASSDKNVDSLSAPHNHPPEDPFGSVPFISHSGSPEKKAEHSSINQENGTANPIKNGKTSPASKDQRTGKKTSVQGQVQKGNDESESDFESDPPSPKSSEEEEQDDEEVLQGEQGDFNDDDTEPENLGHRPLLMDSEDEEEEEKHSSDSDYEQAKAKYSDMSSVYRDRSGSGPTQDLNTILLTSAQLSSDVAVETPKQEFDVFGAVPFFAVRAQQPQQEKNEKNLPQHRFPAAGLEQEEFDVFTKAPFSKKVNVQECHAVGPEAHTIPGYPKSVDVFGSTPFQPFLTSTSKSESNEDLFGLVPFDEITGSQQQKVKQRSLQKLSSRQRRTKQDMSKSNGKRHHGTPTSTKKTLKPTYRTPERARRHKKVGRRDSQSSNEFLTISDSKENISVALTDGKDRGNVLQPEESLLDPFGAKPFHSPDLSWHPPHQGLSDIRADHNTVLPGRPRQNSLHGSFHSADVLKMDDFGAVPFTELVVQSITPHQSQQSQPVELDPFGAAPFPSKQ
Sequence of Mitogen-activated protein kinase kinase kinase 11 (Homo sapiens) (Q16584 whole entry, looked up): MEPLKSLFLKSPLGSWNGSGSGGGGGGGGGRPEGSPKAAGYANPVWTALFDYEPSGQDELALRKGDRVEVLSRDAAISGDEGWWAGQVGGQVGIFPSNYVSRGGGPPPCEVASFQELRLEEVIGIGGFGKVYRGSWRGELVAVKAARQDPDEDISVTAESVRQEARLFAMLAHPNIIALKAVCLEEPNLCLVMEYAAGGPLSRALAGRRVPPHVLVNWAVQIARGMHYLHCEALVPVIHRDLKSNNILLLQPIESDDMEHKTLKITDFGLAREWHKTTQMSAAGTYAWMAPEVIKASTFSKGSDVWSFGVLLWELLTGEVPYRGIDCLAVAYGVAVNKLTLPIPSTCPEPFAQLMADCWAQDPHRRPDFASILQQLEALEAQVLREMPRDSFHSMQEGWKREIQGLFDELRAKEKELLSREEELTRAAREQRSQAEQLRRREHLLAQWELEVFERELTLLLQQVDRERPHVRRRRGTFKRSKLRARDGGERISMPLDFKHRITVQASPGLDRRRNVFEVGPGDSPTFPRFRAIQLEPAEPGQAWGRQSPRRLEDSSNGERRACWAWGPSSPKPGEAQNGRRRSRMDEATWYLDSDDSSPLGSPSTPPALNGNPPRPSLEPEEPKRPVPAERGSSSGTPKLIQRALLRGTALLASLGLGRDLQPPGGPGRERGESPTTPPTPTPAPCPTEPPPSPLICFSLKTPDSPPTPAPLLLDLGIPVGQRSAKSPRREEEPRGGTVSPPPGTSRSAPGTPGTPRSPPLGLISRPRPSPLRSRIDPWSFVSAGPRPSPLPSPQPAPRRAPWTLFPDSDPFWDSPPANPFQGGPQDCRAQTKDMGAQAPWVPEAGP
Sequence of Delta-type opioid receptor (Homo sapiens) (P41143 whole entry, canonical isoform): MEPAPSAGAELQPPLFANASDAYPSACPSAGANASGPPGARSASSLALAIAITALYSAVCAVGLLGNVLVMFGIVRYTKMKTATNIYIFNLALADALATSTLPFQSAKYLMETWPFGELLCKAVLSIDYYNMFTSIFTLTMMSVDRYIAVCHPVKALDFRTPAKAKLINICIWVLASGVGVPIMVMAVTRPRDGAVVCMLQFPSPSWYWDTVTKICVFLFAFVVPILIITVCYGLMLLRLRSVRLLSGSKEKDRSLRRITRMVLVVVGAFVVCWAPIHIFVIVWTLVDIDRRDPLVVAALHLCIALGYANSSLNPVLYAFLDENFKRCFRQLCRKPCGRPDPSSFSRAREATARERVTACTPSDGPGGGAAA
Sequence of 3-phosphoinositide-dependent protein kinase 1 (Homo sapiens) (O15530 whole entry, the tested form may be a part): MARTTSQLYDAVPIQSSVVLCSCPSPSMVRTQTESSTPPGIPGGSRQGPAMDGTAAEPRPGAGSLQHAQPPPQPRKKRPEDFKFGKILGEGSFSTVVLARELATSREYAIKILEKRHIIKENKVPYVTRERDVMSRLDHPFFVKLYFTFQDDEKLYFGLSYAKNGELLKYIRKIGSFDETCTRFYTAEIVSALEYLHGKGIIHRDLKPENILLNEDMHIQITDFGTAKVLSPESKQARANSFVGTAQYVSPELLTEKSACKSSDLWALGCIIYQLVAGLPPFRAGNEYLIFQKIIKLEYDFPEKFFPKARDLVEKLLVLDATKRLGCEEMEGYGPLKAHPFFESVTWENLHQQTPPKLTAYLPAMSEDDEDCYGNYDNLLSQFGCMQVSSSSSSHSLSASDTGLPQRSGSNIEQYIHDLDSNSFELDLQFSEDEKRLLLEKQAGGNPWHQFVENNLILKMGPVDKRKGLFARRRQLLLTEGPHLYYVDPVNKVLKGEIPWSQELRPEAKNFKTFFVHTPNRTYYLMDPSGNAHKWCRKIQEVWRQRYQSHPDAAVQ
Sequence of Beta-2 adrenergic receptor (Homo sapiens) (P07550 whole entry, looked up): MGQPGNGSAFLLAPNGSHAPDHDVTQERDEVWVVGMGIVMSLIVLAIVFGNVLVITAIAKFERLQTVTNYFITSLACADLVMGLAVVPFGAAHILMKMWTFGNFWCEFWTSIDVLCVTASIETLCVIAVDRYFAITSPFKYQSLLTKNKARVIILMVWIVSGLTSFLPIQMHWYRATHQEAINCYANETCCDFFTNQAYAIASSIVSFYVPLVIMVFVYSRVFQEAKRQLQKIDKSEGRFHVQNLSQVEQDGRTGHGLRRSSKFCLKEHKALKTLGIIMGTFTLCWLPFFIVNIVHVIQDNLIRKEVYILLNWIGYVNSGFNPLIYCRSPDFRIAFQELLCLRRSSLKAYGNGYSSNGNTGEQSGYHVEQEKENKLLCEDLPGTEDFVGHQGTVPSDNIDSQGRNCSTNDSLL

Cn1nc(C(F)(F)F)cc1-c1cnc(N2CCc3cc(S(=O)(=O)Nc4c(F)cc(Cl)cc4F)cc(N4CCCC4=O)c32)nc1 [TP-020]
inactive: residual activity [1] 99% | residual activity [2] 99% | residual activity [3] 100% | residual activity [4] 94% | residual activity [5] 100% | residual activity [6] 100% | residual activity [7] 93% | residual activity [8] 77% | residual activity [9] 77% | residual activity [10] 96% | residual activity [11] 100% | residual activity [12] 86% | residual activity [13] 100% | residual activity [14] 92% | residual activity [15] 99% | residual activity [16] 85% | inhibition [17] 5.69% | inhibition [18] 8.54% | residual activity [19] 100% | inhibition [20] 28.7% | residual activity [21] 100% | residual activity [22] 99% | residual activity [23] 89% | residual activity [24] 79% | residual activity [25] 100% | residual activity [26] 100% | residual activity [27] 72% | residual activity [28] 98% | residual activity [29] 99% | inhibition [30] 17.4% | residual activity [31] 100% | residual activity [32] 100% | residual activity [33] 78% | residual activity [34] 100% | residual activity [35] 99% | residual activity [36] 87% | residual activity [37] 89% | residual activity [38] 100% | residual activity [39] 92% | residual activity [40] 84% | residual activity [41] 100% | residual activity [42] 94% | residual activity [43] 100% | residual activity [44] 100% | residual activity [45] 82%

Nc1cnc(N2CCc3cc(S(=O)(=O)Nc4c(F)cc(Cl)cc4F)cc(N4CCCC4=O)c32)nc1
inactive: residual activity [1] 97% | residual activity [2] 100% | residual activity [3] 98% | residual activity [4] 78% | residual activity [5] 100% | residual activity [6] 74% | residual activity [7] 80% | residual activity [8] 100% | residual activity [9] 81% | residual activity [10] 100% | residual activity [11] 99% | residual activity [12] 89% | residual activity [13] 74% | residual activity [14] 88% | residual activity [15] 100% | residual activity [16] 100% | inhibition [17] 18.2% | inhibition [18] -2.82% | residual activity [19] 100% | inhibition [20] -1.24% | residual activity [21] 88% | residual activity [22] 100% | residual activity [23] 100% | residual activity [24] 100% | residual activity [25] 100% | residual activity [26] 100% | residual activity [27] 100% | residual activity [28] 97% | residual activity [29] 83% | inhibition [30] -3.08% | residual activity [31] 99% | residual activity [32] 100% | residual activity [33] 100% | residual activity [34] 87% | residual activity [35] 80% | residual activity [36] 86% | residual activity [37] 100% | residual activity [38] 84% | residual activity [39] 100% | residual activity [40] 80% | residual activity [41] 76% | residual activity [42] 69% | residual activity [43] 100% | residual activity [44] 91% | residual activity [45] 98%
